Experimental data: PMC9322761, “Design, Synthesis and Biological Characterization of Histone Deacetylase 8 (HDAC8) Proteolysis Targeting Chimeras (PROTACs) with Anti-Neuroblastoma Activity” (International Journal of Molecular Sciences, 2022)
Where two headings read alike, the source gives them in different places.

Tests used:
SK-N-BE(2)-C cells = assay: Colony formation assay in neuroblastoma cells; assay type: cell-based, human; settings: 5 and 10 μM, treatment 96 h, then 6 days without treatment
Experimental: In order to measure the functional consequence of HDAC8 inhibition, two different cell lines were used: SK-N-BE(2)-C cells, which display MYCN amplification and non-functional p53; and IMR-32 cells having p53 wild type, which both respond with growth arrest and signs of neuronal differentiation upon knockdown or selective inhibition of HDAC8. Growth arrest was determined by colony formation and viability assays. Cells were treated with 5 and 10 μM of each of the CRBN_ based HDAC8 PROTACs having a triazole linker (CRBN_1d, CRBN_1e, CRBN_1f) for 96 h, followed by culturing for another 6 days without treatment (Figure 5A). This assesses whether the treatment impairs the clonogenic growth capacity of tumor cells, indicating effectiveness of compounds on the survival and proliferation of tumor cells.
In six-well plates, 500 cells were seeded and treated as indicated. Viable colonies were stained after a minimum of 10 days with crystal violet. For quantification, the mean intensity of each well of the 8-bit binary picture was measured with ImageJ software (U. S. National Institutes of Health, Bethesda, MD, USA; http://imagej.nih.gov/ij/ (accessed on 1 March 2022)).
Figure 5 (A) Neuroblastoma SK-N-BE(2)-C cells; Colony Assay, 10 days (compound treatment within first 96 h). Stained with crystal violet and quantified with ImageJ. (B,C) Trypan Blue assay for detection of dead cells. Neuroblastoma IMR-32 cells were either treated with 5 µM (B) or 10 µM (C). (D,E) Cell proliferation assessed via counting of viable cells. IMR-32 cells were either treated with 5 µM (D) or 10 µM (E) PROTACs. HDAC8i PCI-34501 served as a positive control, untreated (MEM) and solvent (DMSO) treated cells served as negative controls.

HDAC8 [1] = target: T1, HDAC8 (Homo sapiens, UniProt Q9BY41); assay: In vitro HDAC8 activity assay (Fluor de Lys-HDAC8); assay type: biochemical; set-up: made in house; settings: for SI (HDAC6/HDAC8): selectivity index, HDAC6 over HDAC8
T1 sequence (Q9BY41 1-377): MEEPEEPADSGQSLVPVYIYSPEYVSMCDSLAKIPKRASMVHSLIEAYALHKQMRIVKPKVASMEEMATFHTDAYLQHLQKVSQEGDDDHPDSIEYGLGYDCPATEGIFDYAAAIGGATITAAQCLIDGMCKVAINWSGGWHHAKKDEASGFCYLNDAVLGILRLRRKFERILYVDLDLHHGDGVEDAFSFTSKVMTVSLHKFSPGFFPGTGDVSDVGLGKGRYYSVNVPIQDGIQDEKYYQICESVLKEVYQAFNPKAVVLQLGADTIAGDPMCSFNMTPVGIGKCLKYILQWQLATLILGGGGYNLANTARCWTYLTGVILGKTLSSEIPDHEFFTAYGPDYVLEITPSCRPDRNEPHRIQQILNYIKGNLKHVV
Experimental: Recombinant hHDAC8 was produced by Romier et al. in Strasbourg. The HDAC8 activity assays were performed according to the commercial HDAC8 Fluorometric Drug Discovery Kit (Fluor de Lys(R)-HDAC8, BML-KI178) corresponding to the instructions of the manufacturer. As substrate a tetrapeptide connected to aminomethylcoumarin (AMC) H2N-Arg- His-Lys(Ac)-Lys(Ac)-AMC was synthesized as previously described. The enzyme was incubated for 90 min at 37 °C, with a substrate concentration of 50 µM and increasing concentrations of inhibitors. The stop-solution-containing inhibitor was added to stop the hHDAC8 activity, and Trypsin was added to release the AMC. The solution was incubated for 20 min at 37 °C to develop the assay.
(§1) Inhibition was measured at increasing concentration and IC50 was calculated by nonlinear regression with Origin 9.0G software.

HDAC1 = HDAC1 (Homo sapiens, UniProt Q13547); assay: In vitro HDAC inhibitory activity assay, recombinant HDAC1 (fluorogenic substrate ZMAL); assay type: biochemical; set-up: purchased BPS Biosciences; settings: for inhibition at 1 µM / inhibition at 10 µM: read-out: HDAC1 % inhib. at given conc.
Experimental: (§2) The in vitro testing on recombinant HDACs was performed as previously described. Recombinant human HDAC1 and −6 were purchased from BPS Biosciences. The enzyme inhibition was determined by using a reported homogenous fluorescence assay. […] Fluorescence intensity was measured at an excitation wavelength of 390 nm and an emission wavelength of 460 nm in a microtiter plate reader (BMG Polarstar).
as §1

HDAC6 = target: T2, HDAC6 (Homo sapiens, UniProt Q9UBN7); assay: In vitro HDAC inhibitory activity assay, recombinant HDAC6 (fluorogenic substrate ZMAL); assay type: biochemical; set-up: purchased BPS Biosciences; settings: for inhibition at 1 µM / inhibition at 10 µM: read-out: HDAC6 % inhib. at given conc.
T2 sequence (Q9UBN7 1-1215): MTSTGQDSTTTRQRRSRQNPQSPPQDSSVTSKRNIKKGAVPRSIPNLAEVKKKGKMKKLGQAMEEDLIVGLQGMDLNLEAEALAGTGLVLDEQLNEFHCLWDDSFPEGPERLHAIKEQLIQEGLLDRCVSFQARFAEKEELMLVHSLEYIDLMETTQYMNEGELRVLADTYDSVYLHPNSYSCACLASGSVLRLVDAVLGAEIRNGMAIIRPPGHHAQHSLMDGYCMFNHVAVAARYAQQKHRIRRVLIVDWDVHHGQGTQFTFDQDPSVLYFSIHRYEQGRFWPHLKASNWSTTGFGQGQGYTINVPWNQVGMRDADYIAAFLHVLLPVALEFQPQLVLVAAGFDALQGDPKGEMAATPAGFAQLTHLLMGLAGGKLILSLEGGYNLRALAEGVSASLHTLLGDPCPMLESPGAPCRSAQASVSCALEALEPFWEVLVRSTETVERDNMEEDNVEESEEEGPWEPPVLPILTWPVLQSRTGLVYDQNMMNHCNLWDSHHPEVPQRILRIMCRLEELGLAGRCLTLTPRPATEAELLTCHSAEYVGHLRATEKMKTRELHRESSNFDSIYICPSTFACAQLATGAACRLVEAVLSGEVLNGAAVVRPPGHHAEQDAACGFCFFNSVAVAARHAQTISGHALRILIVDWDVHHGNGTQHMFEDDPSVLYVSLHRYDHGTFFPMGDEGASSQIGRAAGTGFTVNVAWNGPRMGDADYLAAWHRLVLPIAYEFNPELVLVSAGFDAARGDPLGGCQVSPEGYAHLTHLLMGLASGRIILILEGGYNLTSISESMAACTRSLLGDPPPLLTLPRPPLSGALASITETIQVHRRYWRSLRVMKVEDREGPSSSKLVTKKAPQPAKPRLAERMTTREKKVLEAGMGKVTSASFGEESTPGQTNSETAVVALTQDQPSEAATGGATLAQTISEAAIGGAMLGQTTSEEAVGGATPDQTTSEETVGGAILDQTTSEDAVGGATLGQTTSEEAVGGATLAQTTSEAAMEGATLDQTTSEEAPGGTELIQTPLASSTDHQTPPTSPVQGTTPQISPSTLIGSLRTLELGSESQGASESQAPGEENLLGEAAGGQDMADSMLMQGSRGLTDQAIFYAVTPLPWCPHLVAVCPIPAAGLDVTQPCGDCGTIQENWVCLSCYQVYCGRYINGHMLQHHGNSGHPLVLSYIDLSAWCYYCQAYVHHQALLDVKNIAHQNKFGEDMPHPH
Experimental: as §2, §1

HDAC8 [2] = target: T1, HDAC8; assay: HDAC8 degradation in SK-N-BE(2)-C neuroblastoma cells (Western blot); assay type: cell-based; set-up: endogenous in cells; host or cells: SK-N-BE(2)-C
Experimental: Whole cell lysates from treated SK-N-BE(2)-C neuroblastoma cells were taken and the protein levels for HDAC8 and the acetylation of its substrate SMC3 were determined (Figure 6). As a control for HDAC6, we also assessed acetylation levels of α-tubulin. […] Western blot analysis was performed as described previously (Kolbinger et al.).
Figure 6 (A) SK-N-BE(2)-C neuroblastoma cells were treated for indicated time points with 10 µM of PROTACs. Degradation of HDAC8 and acetylation of HDAC8 target was analyzed via Western blot. (B) SK-N-BE(2)-C neuroblastoma cells were treated for 6 h with indicated concentrations of HyT_1p, CRBN_1b and HyT_1m. Acetylation of HDAC8 target SMC3 and HDAC6 target tubulin, as well as total HDAC8 levels, were assessed by Western blot. Quantified ac-SMC3 or ac-tubulin expression, respectively, was normalized to the respective tubulin loading control and to the solvent control (DMSO). This quantification is reflected by the numbers below each blot. […] Total HDAC6, total HDAC1, total HDAC8, and acetyl-histone H4 expression levels, were assessed by Western blot. Total GAPDH protein levels served as a loading control (LC). * unspecific bands obtained through reprobing of the membrane.

[3] = Table 1, PROTACs, read-out: HDAC6 IC50
[4] = Table 2, inhibitors synthesized in this paper (S1)
[5] = Table 2, inhibitors synthesized in this paper (S1), read-out: HDAC1 IC50
[6] = Table 2, inhibitors synthesized in this paper (S1), read-out: HDAC6 IC50

Sequence of HDAC1 (Q13547 whole entry): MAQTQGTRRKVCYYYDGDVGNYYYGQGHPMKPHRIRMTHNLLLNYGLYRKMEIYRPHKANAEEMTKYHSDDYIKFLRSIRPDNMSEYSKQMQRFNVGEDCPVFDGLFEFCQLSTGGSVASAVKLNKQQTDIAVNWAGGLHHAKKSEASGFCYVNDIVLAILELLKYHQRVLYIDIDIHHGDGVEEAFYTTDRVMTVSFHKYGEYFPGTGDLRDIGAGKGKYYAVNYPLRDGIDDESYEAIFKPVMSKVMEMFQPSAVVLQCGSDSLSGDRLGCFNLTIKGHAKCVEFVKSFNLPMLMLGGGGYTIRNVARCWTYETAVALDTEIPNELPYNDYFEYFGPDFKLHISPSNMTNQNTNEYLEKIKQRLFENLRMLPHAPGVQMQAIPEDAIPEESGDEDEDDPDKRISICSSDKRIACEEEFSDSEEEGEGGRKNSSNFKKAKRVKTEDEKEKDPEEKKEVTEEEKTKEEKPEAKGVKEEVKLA

| Compound | IC50 (HDAC8 [1]; Table 1, PROTACs) | SI (HDAC6/HDAC8) (HDAC8 [1]) | inhibition at 1 µM (HDAC1) | inhibition at 10 µM (HDAC1) | inhibition at 1 µM (HDAC6) | inhibition at 10 µM (HDAC6) | further results |
| --- | --- | --- | --- | --- | --- | --- | --- |
| Cc1ccc(C(=O)NO)cc1NCc1ccc(OCc2cn(CCCCCC(=O)Nc3cccc4c3C(=O)N(C3CCC(=O)NC3=O)C4=O)nn2)cc1 (stereo not shown) [CRBN_1d] | 370 ± 50 nM | 18 |  |  |  |  | Effect on colony formation (SK-N-BE(2)-C cells): strongest effect on colony formation; IC50 (HDAC1): 13100 ± 600 nM; IC50 (HDAC6): 6700 ± 600 nM; HDAC8 degradation (HDAC8 [2]; SK-N-BE(2)-C cells, up to 10 µM, Western blot): failed to degrade HDAC8 |
| O=C1CCC(N2C(=O)c3cccc(NC(=O)CCCCCn4cc(COc5ccc(CNc6cc(C(=O)NO)ccc6Cl)cc5)nn4)c3C2=O)C(=O)N1 (stereo not shown) [CRBN_1f] | 250 ± 30 nM | 5 |  |  |  |  | Effect on colony formation (SK-N-BE(2)-C cells): inactive; IC50 (HDAC1; Table 1, PROTACs, read-out: HDAC1 IC50): 10800 ± 700 nM; IC50 (HDAC6; [3]): 1300 ± 300 nM |
| O=C(COc1ccc(C(=O)Nc2cc(C(=O)NO)ccc2Cl)cc1)NCCCOCCOCCOCCCNc1cccc2c1C(=O)N(C1CCC(=O)NC1=O)C2=O (stereo not shown) [CRBN_1i] | 650 ± 140 nM |  | 20.7% | 67.4% | 85.4% | 92.3% |  |
| COc1ccc(C(=O)NO)cc1NC(=O)c1ccc(CNC(=O)CCCCCCCNC(=O)CC23CC4CC(CC(C4)C2)C3)cc1 [HyT_1o] | 90 ± 10 nM | 4 | 9.8% | 52.6% |  |  | IC50 (HDAC6; [3]): 370 ± 30 nM |
| COc1ccc(CNc2cc(C(=O)NO)ccc2OC)cc1 [2h] |  |  |  |  |  |  | IC50 (HDAC8 [1]; [4]): 10 ± 1 nM; IC50 (HDAC1; [5]): > 20000 nM; IC50 (HDAC6; [6]): 150 ± 1 nM |
| Cc1ncsc1-c1ccc(CNC(=O)[C@@H]2C[C@@H](O)CN2C(=O)[C@@H](NC(=O)CCCCCNC(=O)COc2ccc(CNc3cc(C(=O)NO)ccc3Cl)cc2)C(C)(C)C)cc1 [VHL_1l] | 720 ± 150 nM |  | 6% | 45.5% | 8.3% | 72.4% |  |
| COc1ccc(C(=O)NO)cc1NC(=O)c1ccc(NC(=O)CCCCCCCNC(=O)CC23CC4CC(CC(C4)C2)C3)cc1 [HyT_1n] | 390 ± 30 nM | 2 | 38.6% | 30% |  |  | IC50 (HDAC6; [3]): 820 ± 50 nM |
| COc1ccc(C(=O)NO)cc1NC(=O)c1ccc(CNC(=O)CCCCCCCNc2cccc3c2C(=O)N(C2CCC(=O)NC2=O)C3=O)cc1 (stereo not shown) [CRBN_1c] | 150 ± 10 nM | 2 | 22.2% | 40.1% |  |  | IC50 (HDAC6): 250 ± 20 nM |
| O=C(COc1ccc(CNc2cc(C(=O)NO)ccc2Cl)cc1)NCCCCCNc1cccc2c1C(=O)N(C1CCC(=O)NC1=O)C2=O (stereo not shown) [CRBN_1g] | 590 ± 110 nM |  | 10.1% | 69% | 24.8% | 72.6% |  |
| COc1ccc(C(=O)NO)cc1NC(=O)c1ccc(NC(=O)CCCCCNc2cccc3c2C(=O)N(C2CCC(=O)NC2=O)C3=O)cc1 (stereo not shown) [CRBN_1a] | 90 ± 30 nM | 2 |  |  |  |  | IC50 (HDAC1): 4370 ± 650 nM; IC50 (HDAC6): 220 ± 60 nM |
| O=C(COc1ccc(CNc2cc(C(=O)NO)ccc2Cl)cc1)NCCCOCCOCCOCCCNc1cccc2c1C(=O)N(C1CCC(=O)NC1=O)C2=O (stereo not shown) [CRBN_1h] | 330 ± 190 nM |  |  |  | 33.5% | 66.8% | IC50 (HDAC1): 3910 ± 480 nM |
| O=C(COc1ccc(CNc2cc(C(=O)NO)ccc2Cl)cc1)OCc1ccccc1 [2i] |  |  |  |  |  |  | IC50 (HDAC8 [1]; [4]): 410 ± 50 nM; IC50 (HDAC1; [5]): > 20000 nM; IC50 (HDAC6; [6]): 7400 ± 600 nM |
| O=C(COc1ccc(C(=O)Nc2cccc(C(=O)NO)c2)cc1)NCCCOCCOCCOCCCNc1cccc2c1C(=O)N(C1CCC(=O)NC1=O)C2=O (stereo not shown) [CRBN_1j] | 4840 ± 1050 nM |  | 13.9% | 60% | 46.2% | 80.9% |  |
| C[C@@H]1C[C@@H]([C@H](O)CC2CC(=O)NC(=O)C2)C(=O)[C@@H](C)C1 [cycloheximide, reference compound] |  |  |  |  |  |  | HDAC8 degradation with de novo protein synthesis inhibited (HDAC8 [2]; 24 h, cycloheximide 35 nM, PROTAC 10 μM): no effect |
